Eight compounds from PubChem BioAssay (NCI) can be followed below.

Some test systems named below: DU-145 prostate; OVCAR-4 ovarian; PC-3 prostate; MALME-3M melanoma; SF-268 CNS; NCI-H460 lung; HCC-2998 colon; A498 renal; SR leukemia; SF-295 CNS.
Assay in all cases: NCI anticancer screen, dose series, 48 h

Values joined by “and” are separate entries in the source; they are usually repeats but may differ in a detail not shown here. Identical values can stand only once.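 Exposure lasted 48 hours, with cells grown in 96-well plates and compounds tested at five concentrations. GI50 is the concentration that inhibits growth by half. TGI is the concentration that stops growth completely.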 Where only a bound is given, the exact number is not on record here.

On to `Nc1c(C(=O)Nc2cccc(Br)c2)sc2nc3c(cc12)C(O)CCC3` (configuration not stated), for which the GI50 was 0.455 µM in the assay with DU-145 prostate; 3.14 µM in the assay on OVCAR-4 ovarian; 0.349 µM in the assay on PC-3 prostate; 0.522 µM in the assay with MALME-3M melanoma; 0.682 µM in the assay on SF-268 CNS; 0.375 µM in the assay on NCI-H460 lung. Further, the GI50 in the assay with HCC-2998 colon is 1.61 µM; with A498 renal it was 0.207 µM; in the assay on SR leukemia it was 0.228 µM; in the assay on SF-295 CNS, 0.314 µM. For the same compound, the TGI was 22.4 µM in the assay with DU-145 prostate; 66 µM in the assay on OVCAR-4 ovarian; 24.4 µM with PC-3 prostate; > 87.1 µM in the assay on MALME-3M melanoma; > 57.6 µM in the assay with SF-268 CNS; 22 µM in the assay on NCI-H460 lung. The TGI in the assay with HCC-2998 colon is 50.2 µM; in the assay with A498 renal it was 3.91 µM; in the assay with SR leukemia, > 46 µM; in the assay on SF-295 CNS, 16.2 µM.

For `O=c1c2c3c(sc2n2c(-c4ccc(Br)cc4)nnc2n1Cc1ccccc1)CCCC3`, the GI50 is 9.72 µM with DU-145 prostate; 6.03 µM in the assay on OVCAR-4 ovarian; 2.97 µM in the assay on PC-3 prostate; 3.19 µM in the assay on MALME-3M melanoma; 7.44 µM in the assay with SF-268 CNS; 10.2 µM in the assay with NCI-H460 lung. Moreover, the GI50 in the assay on HCC-2998 colon is 3.25 µM; in the assay with A498 renal, 10.9 µM; in the assay on SR leukemia, 4.76 µM; in the assay with SF-295 CNS, 2.42 µM. Besides, the TGI in the assay with DU-145 prostate is 22.9 µM; in the assay with OVCAR-4 ovarian, 22.4 µM; with PC-3 prostate, 16.6 µM; with MALME-3M melanoma it was 19.5 µM; with SF-268 CNS, 21.1 µM; with NCI-H460 lung it was 22.3 µM. For the same compound, the TGI in the assay on HCC-2998 colon was 13.4 µM; in the assay with A498 renal it was 22.9 µM; in the assay with SR leukemia, 23.6 µM; with SF-295 CNS, 7.51 µM.

Regarding `Oc1ccc(Cl)cc1-c1cc(-c2ccc(F)cc2)n[nH]1`, the GI50 in the assay with DU-145 prostate is 3.04 µM; in the assay with OVCAR-4 ovarian, 0.593 µM; in the assay on PC-3 prostate, 1.96 µM; with MALME-3M melanoma, 3.26 µM; in the assay with SF-268 CNS it was 2.66 µM; in the assay with NCI-H460 lung, 1.2 µM. Besides, the GI50 with HCC-2998 colon was 2.08 µM; in the assay on A498 renal it was 2.21 µM; in the assay with SR leukemia it was 1.24 µM; in the assay on SF-295 CNS, 2.16 µM. The TGI is 10.8 µM in the assay on DU-145 prostate; > 100 µM with OVCAR-4 ovarian; 8.81 µM with PC-3 prostate; 9.66 µM with MALME-3M melanoma; 11.4 µM in the assay on SF-268 CNS; 4.1 µM in the assay with NCI-H460 lung. Also, the TGI in the assay with HCC-2998 colon was 5.95 µM; with A498 renal, 6.85 µM; with SR leukemia, > 100 µM; with SF-295 CNS, 5.24 µM.

Regarding `CC1(C)[C@@H](OC(N)=O)C=C[C@]2(C=O)[C@H]3CC[C@]4(C)[C@@H](c5ccc(=O)oc5)[C@@H](Cl)C[C@]4(O)C3=CC[C@@H]12`, the GI50 in the assay on DU-145 prostate was 0.0041 µM; in the assay with OVCAR-4 ovarian it was 0.004 µM; with PC-3 prostate it was 0.00517 µM; with MALME-3M melanoma, 0.00525 µM; with SF-268 CNS it was 0.00301 µM; in the assay with NCI-H460 lung, < 0.0025 µM. Further, the GI50 in the assay with HCC-2998 colon is 0.0081 µM; in the assay on A498 renal, 0.00594 µM; in the assay with SR leukemia, 0.00566 µM; with SF-295 CNS, 0.00502 µM. For the same compound, the TGI with DU-145 prostate worked out at 0.00785 µM; in the assay on OVCAR-4 ovarian, 0.0121 µM; in the assay with PC-3 prostate it was 0.0148 µM; in the assay on MALME-3M melanoma it was 0.0109 µM; in the assay on SF-268 CNS, 0.00621 µM; in the assay with NCI-H460 lung it was 0.0048 µM. Moreover, the TGI was determined as 0.0304 µM in the assay with HCC-2998 colon, 0.0177 µM in the assay on A498 renal, 0.0154 µM in the assay with SR leukemia and 0.0111 µM in the assay with SF-295 CNS.

On to `CCCCCCNC(=O)Oc1ccc(/C(=C(\C)c2ccccc2)c2ccc(OCCN(CC)CC)cc2)cc1`, for which the GI50 with DU-145 prostate was 7.45 µM; with OVCAR-4 ovarian, 5.46 µM; in the assay with PC-3 prostate, 2.81 µM; in the assay on MALME-3M melanoma it was 3.59 µM; in the assay on SF-268 CNS, 5.54 µM; in the assay on NCI-H460 lung, 1.4 µM. The GI50 with HCC-2998 colon is 2.33 µM; in the assay on A498 renal, 6.93 µM; with SR leukemia, 1.09 µM; in the assay with SF-295 CNS, 2.11 µM. Moreover, the TGI in the assay on DU-145 prostate turned out to be 14.6 µM; in the assay with OVCAR-4 ovarian, 11.9 µM; in the assay with PC-3 prostate, 9.21 µM; in the assay with MALME-3M melanoma it was 10.1 µM; in the assay with SF-268 CNS, 13.1 µM; with NCI-H460 lung, 3.62 µM. The TGI was determined as 8.16 µM in the assay on HCC-2998 colon, 13.6 µM in the assay on A498 renal, 3.18 µM with SR leukemia and 7.38 µM in the assay with SF-295 CNS.

Turning to `NS(=O)(=O)c1ccc(NC(=O)Nc2ccccc2F)cc1`, the TGI in the assay with DU-145 prostate, in the assay on OVCAR-4 ovarian, in the assay on PC-3 prostate, with MALME-3M melanoma, in the assay with SF-268 CNS and in the assay on NCI-H460 lung was > 100 µM each time. The TGI in the assay on HCC-2998 colon, in the assay on A498 renal, in the assay on SR leukemia and with SF-295 CNS was > 100 µM in each case.

Take `N#Cc1c2c(c(-c3cccs3)n(C3OC(CO)C(O)C(O)C3O)c1=S)CCc1ccccc1-2` (configuration not stated): the TGI in the assay with DU-145 prostate, in the assay with OVCAR-4 ovarian, in the assay with PC-3 prostate, in the assay on MALME-3M melanoma, in the assay with SF-268 CNS and with NCI-H460 lung was > 100 µM in each case. The TGI with HCC-2998 colon, in the assay on A498 renal, in the assay on SR leukemia and in the assay on SF-295 CNS was > 100 µM throughout. In addition, the GI50 is > 100 µM in the assay with SF-268 CNS; 37.8 µM and > 100 µM in the assay on NCI-H460 lung; 5.6 µM and 15.7 µM in the assay with A498 renal.

Turning to `CCCCCc1c(C)[nH]c(/C=C2\N=C(c3ccc[nH]3)C=C2OCc2ccccc2)c1C`, the GI50 with DU-145 prostate is 0.0581 µM and 0.0366 µM; in the assay with OVCAR-4 ovarian, 0.0463 µM and 0.0163 µM; in the assay on PC-3 prostate, 0.0413 µM and 0.0183 µM; in the assay on MALME-3M melanoma it was 0.116 µM and 0.0585 µM; in the assay with SF-268 CNS, 0.0488 µM and 0.0385 µM; with NCI-H460 lung, 0.0423 µM and 0.031 µM. Besides, the GI50 in the assay with HCC-2998 colon is 0.0419 µM and 0.038 µM; in the assay with A498 renal it was 0.0411 µM and 0.0298 µM; with SR leukemia, 0.0226 µM and 0.025 µM; in the assay with SF-295 CNS, 0.0689 µM and 0.0431 µM. Also, the TGI was 1.62 µM and 1.08 µM with DU-145 prostate; 1.29 µM and 1.24 µM in the assay on OVCAR-4 ovarian; 2.06 µM and 1.17 µM in the assay on PC-3 prostate; 0.494 µM and 0.209 µM with MALME-3M melanoma; 1.6 µM and 1.33 µM with SF-268 CNS; 1.42 µM and 1.16 µM in the assay on NCI-H460 lung. The TGI was 1.7 µM and 1.24 µM in the assay with HCC-2998 colon; 0.74 µM and 0.219 µM in the assay on A498 renal; 0.337 µM and 0.292 µM in the assay on SF-295 CNS.
